Patent US9121026B2 (priority 2004, dated 2015)
Entries after “also recorded” stand apart in the source; their conditions may differ.

Columns and labels:
Type in all cases: cell-based, Saccharomyces cerevisiae
[1] = test system: RE700A e PCUP-HXT7 (ECFP); assay: Growth inhibition of ECFP by 2-DG; conditions: 20 h 28° C., maltose, in percent of growth of RE700A
Experimental: (A) RE700A, ECFP and ET[PDR] were incubated 20 h at 28° C. with maltose (2% (w/v)) as the sole carbon source in the presence of the indicated 2-DG concentrations. The optical density was measured at 600 nm every 15 minutes and the integral under the growth curve was calculated. Inhibition of growth of ECFP and ET[PDR] is shown in percent of growth of RE700A. Growth of ECFP was inhibited by 39% at 0.005% (w/v) 2-DG, by 78% at 0.01% (w/v) 2-DG, by 91% at 0.03% (w/v) 2-DG and by 93% at 0.05% (w/v) 2-DG. Growth of ET[PDR] was inhibited by 52% at 0.005% (w/v) 2-DG, by 87% at 0.01% (w/v) 2-DG, by 94% at 0.03% (w/v) 2-DG and by 96% at 0.05% (w/v) 2-DG.
(§1) Strain growth: The growth of the strains in liquid medium was determined by measuring the optical density at 600 nm. To obtain growth curves, measurements were performed every 15 min. Alternatively, start and endpoint (after 12-16 h) measurements were carried out.

[2] = test system: RE700A Δpdr3 tok1::PPDR5-HXT7; assay: Growth inhibition of RE700A Δpdr3 tok1::PPDR5-HXT7 by 2-DG; conditions: RE700A Δpdr3 tok1::PPDR5-HXT7, maltose, 20 h 28° C.
Experimental: (§2) (A) Growth inhibition of RE700A i PPDR5-HXT7 (IT[PDR]), RE700A Δpdr1 tok1::PPDR5-HXT7, RE700A Δpdr3 tok1::PPDR5-HXT7 and RE700A Δpdr1,pdr3 tok1::PPDR5-HXT7 at increasing 2-DG concentrations. RE700A i PPDR5-HXT7 (IT[PDR]), RE700A Δpdr1 tok1::PPDR5-HXT7, RE700A Δpdr3 tok1::PPDR5-HXT7 and RE700A Δpdr1,pdr3 tok1::PPDR5-HXT7 were incubated 20 h at 28° C. with Maltose (2% (w/v)) as the sole carbon source and 2-DG concentrations as indicated. The optical density was measured at 600 nm every 15 minutes and the integral under the growth curve was calculated. Inhibition of growth caused by 2-DG is shown in percent. The growth of the strain RE700A tok1::PPDR5-HXT7 (IT[PDR]) was inhibited by 50% at 0.02% (w/v) 2-DG. Growth of the strains RE700A Δpdr1 tok1::PPDR5-HXT7 and RE700A Δpdr3 tok1::PPDR5-HXT7 was inhibited by 50% at 0.026% (w/v) 2-DG.
(§3) All strains expressing HXT7 were tested for sensitivity to 2-DG. The strains expressing GFP under the control of PPDR5 were additionally analysed for GFP fluorescence in comparison to RE700Ae PPDR5-GFP (strain CQ[PDR]).

[3] = test system: RE700A Δpdr1,pdr3 tok1::PPDR5-HXT7; assay: Growth inhibition of RE700A Δpdr1,pdr3 tok1::PPDR5-HXT7 by 2-DG; conditions: RE700A Δpdr1,pdr3 tok1::PPDR5-HXT7, up to a 2-DG concentration of 0.03% (w/v)
Experimental: as §2, §3

[4] = test system: RE700A Δpdr3 tok1::PPDR5long-HXT7; assay: Growth of RE700A Δpdr3 tok1::PPDR5long-HXT7 in the presence of 2-DG; conditions: RE700A Δpdr3 tok1::PPDR5long-HXT7, 20 h 28° C.
Experimental: (§4) (B) Relative growth of RE700A tok1::PPDR5long-HXT7, RE700A Δpdr1 tok1::PPDR5long-HXT7, RE700A Δpdr3 tok1::PPDR5long-HXT7 and RE700A Δpdr1,3 tok1::PPDR5long-HXT7 in the presence of 2-DG. Cells were incubated for 20 h at 28° C. with 2-DG at different concentrations. […] The standard error of the mean (n=5) is indicated.

[5] = test system: RE700A Δpdr1,3 tok1::PPDR5long-HXT7; assay: Growth of RE700A Δpdr1,3 tok1::PPDR5long-HXT7 in the presence of 2-DG
Experimental: as §4

[6] = test system: S. cerevisiae strain RE700A; assay: Growth inhibition of RE700A by 2-DG in liquid maltose medium (OD600, integral under growth curve)
Experimental: FIG. 1: Growth inhibition of S. cerevisiae strain RE700A at increasing 2-deoxy-glucose (2-DG) concentrations after incubation at 280 C for 20 h. RE700A was incubated for 20 h at 28° C. with maltose (2% (w/v)) as the sole carbon source and 2-DG at the concentrations indicated. The optical density was measured at 600 nm every 15 minutes and the integral under the growth curve was calculated. Inhibition of growth is shown in percent of growth of RE700A in the absence of 2-DG. The strain grew well in the presence of up to 0.5% (w/v) 2-DG.
as §1
The screening system used Saccharomyces cerevisiae RE700A, a yeast strain deprived of the seven most important glucose transporters (HXT1-7) (Reifenberger, E. et al., Molecular Microbiology 16:157-167 (1995)). The strain is not able to grow on glucose as the sole carbon source. It grows on maltose (2% (w/v)) as the sole carbon source. In addition, the strain grows well on maltose also in the presence of up to 0.5% (w/v) 2-deoxy-glucose (2-DG), a toxic glucose analogue, in the medium (FIG. 1). Growth is inhibited by 50% at a 2-DG concentration in liquid media of ˜1% (w/v) (FIG. 1).

SMILES: O=CC[C@@H](O)[C@H](O)[C@H](O)CO [2-DG, 2-deoxy-glucose]
- Inhibition of growth ([1]; 0.005% (w/v) 2-DG): 39%
- Inhibition of growth ([1]; 0.01% (w/v) 2-DG): 78%
- Inhibition of growth ([1]; 0.03% (w/v) 2-DG): 91%
- Inhibition of growth ([1]; 0.05% (w/v) 2-DG): 93%
- 2-DG concentration for 50% growth inhibition [2]: 0.026 % (w/v)
- Growth inhibition / 2-DG sensitivity [3]: did not show significant 2-DG sensitivity; also recorded: not significantly inhibited
- 2-DG concentration for 50% growth inhibition [4]: 0.029 % (w/v)
- Sensitivity to 2-DG compared with the other PPDR5long-HXT7 strains ([5]; RE700A Δpdr1,3 tok1::PPDR5long-HXT7, 20 h 28° C., n=5): far less sensitive
- 2-DG concentration for 50% growth inhibition ([5]; RE700A Δpdr1,3 tok1::PPDR5long-HXT7, liquid media, 20 h 28° C.): 0.6 % (w/v)
- Increase of tolerance to 2-DG ([5]; RE700A Δpdr1,3 tok1::PPDR5long-HXT7 versus RE700A Δpdr1 tok1::PPDR5long-HXT7): ~10 fold
- 2-DG concentration at which growth is inhibited by 50% ([6]; liquid media, maltose): ~1 % (w/v)
- 2-DG concentration up to which the strain grows well ([6]; maltose 2% (w/v) sole carbon source, 20 h, 28° C.): up to 0.5 % (w/v)
